Earlier results in patent publication US20130096134A1, “HETEROCYCLIC COMPOUNDS AND THEIR USES” (Amgen Inc., priority 2010, published 2013).

Legend:
[1] = tested on: model of systemic lupus erythematosis; settings: in vivo
[2] = tested on: mouse model of rheumatoid arthritis; settings: in vivo
murine model of asthma = settings: ovalbumin-induced airway inflammation
p110δ = target: T1, p110δ (Homo sapiens, UniProt O00329)
T1 sequence (O00329 1-1044): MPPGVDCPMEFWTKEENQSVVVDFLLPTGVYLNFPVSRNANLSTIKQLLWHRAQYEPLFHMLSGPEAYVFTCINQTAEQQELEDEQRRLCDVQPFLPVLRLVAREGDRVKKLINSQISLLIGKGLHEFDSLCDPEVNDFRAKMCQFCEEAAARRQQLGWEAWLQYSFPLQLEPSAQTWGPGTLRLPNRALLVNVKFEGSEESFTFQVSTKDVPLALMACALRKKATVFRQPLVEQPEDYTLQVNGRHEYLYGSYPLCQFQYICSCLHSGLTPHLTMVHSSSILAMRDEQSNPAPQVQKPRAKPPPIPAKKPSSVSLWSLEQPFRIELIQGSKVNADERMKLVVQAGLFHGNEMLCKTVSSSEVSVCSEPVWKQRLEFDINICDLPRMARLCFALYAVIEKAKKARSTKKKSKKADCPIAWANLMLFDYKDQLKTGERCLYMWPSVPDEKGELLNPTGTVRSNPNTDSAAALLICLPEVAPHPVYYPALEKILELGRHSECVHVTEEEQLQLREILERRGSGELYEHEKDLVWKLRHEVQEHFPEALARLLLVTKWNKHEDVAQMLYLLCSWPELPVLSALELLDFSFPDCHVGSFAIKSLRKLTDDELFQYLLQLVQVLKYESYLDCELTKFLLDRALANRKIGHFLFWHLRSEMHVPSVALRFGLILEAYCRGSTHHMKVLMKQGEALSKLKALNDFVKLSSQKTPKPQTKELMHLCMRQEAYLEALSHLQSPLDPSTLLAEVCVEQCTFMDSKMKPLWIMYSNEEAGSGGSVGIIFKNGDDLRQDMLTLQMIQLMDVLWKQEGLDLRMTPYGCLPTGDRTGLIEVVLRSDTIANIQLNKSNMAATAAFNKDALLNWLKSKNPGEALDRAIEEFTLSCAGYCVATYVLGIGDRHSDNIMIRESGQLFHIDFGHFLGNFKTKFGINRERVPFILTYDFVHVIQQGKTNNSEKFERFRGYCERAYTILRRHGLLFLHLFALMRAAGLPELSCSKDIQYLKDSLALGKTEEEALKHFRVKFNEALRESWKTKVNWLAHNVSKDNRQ

Structure (SMILES)	onset of disease in a model of systemic lupus erythematosis [1]	efficacy in a mouse model of rheumatoid arthritis [2]	inflammation and disease in a murine model of asthma (murine model of asthma)	inhibition of p110δ (p110δ)	activity against any protein kinases tested (protein kinases)
O=C1NC(=O)/C(=C\c2ccc3nccnc3c2)S1 [AS 605240]	delay onset of disease	efficacious	–	–	–
Cc1ccccc1-n1c(Cn2cnc3c(N)ncnc32)nc2cccc(C)c2c1=O [IC87114]	–	–	significantly ameliorate inflammation and disease	high nanomolar range (triple digit)	no activity
